# According to paper PMC9545781 (British Journal of Clinical Pharmacology, 2022):
# How the values were obtained:
# [1] = Open-label clinical pharmacokinetic study of oral XBD173 and etifoxine in healthy volunteers (plasma LC-MSMS); type: in vivo, human; conditions: for AUClast / AUC(0-t) / Cmax / Tmax: 90 mg XBD173 single oral dose
# Description: This was a single centre, open‐label study enrolling 4 adult healthy volunteers (aged 35–65 y) irrespective of rs6971 genotype. Detailed inclusion and exclusion criteria are shown in the supplementary information. […] As a precaution, therefore, a long washout period was chosen. The first dose was taken at the clinical research facility and the participant was monitored for 4 hours. Subsequent doses were taken at home by the participant. On day 7, the participant returned for a final assessment. […] The PI of the study was Paul M. Matthews (DPhil, FRCP, FMedSci) who is an author on the manuscript.
# Plasma samples for pharmacokinetic analysis were obtained on day 1 at 0.5, 1, 2, 3, 4 hours following the first dose. […] Plasma samples were stored at −20°C or lower until analysis. Plasma samples (25 μL) were prepared for analysis by protein precipitation with acetonitrile containing internal standard (tolbutamide; 200 μL) followed by mixing (150 rpm, 15 min) and centrifugation (1500 g, 15 min). The supernatant (50) μL was diluted with water (100 μL) and mixed (100 rpm, 15 min). […] Injection volume was 1 μL.
# TSPO [2] = experiment: Estimates of TSPO occupancy from plasma concentration and binding affinity; parameters: species or system human; conditions: 90 mg oral XBD173
# TSPO [3] = conditions: cited from earlier work
# [4] = parameters: method as in PMID 19541954; conditions: cited from earlier work
# in vitro = conditions: plasma, pH 7.4
# Description: (§1) Plasma protein binding was measured by equilibrium dialysis using 96‐well plate blocks with 2 compartments separated by a vertical cylinder of dialysis membrane (molecular weight cut off ~8000 Da; ThermoFisher Scientific). […] The unit was covered and incubated at 37°C on an orbital shaker for 4 hours. After incubation, samples from both plasma (bound) chamber and the buffer (free) chamber were taken and matrix‐matched by addition of the alternative blank matrix. Acetonitrile containing internal standard was added to all samples. […] The ratio of responses in free to bound samples equates to the free fraction.
# [5] = Plasma protein binding by equilibrium dialysis; conditions: plasma spiked at 1 μM, 37°C, 4 hours, mean (SEM)
# Description: as §1
# [6] = human, plasma, po, 90 mg, 90mg XBD173 single oral dose, Mean (SEM)
# [7] = human, plasma, po, 90 mg, 90mg XBD173 single oral dose, participant 1
# [8] = human, plasma, po, 90 mg, 90mg XBD173 single oral dose, participant 2
# [9] = human, plasma, po, 90 mg, 90mg XBD173 single oral dose, participant 3
# [10] = human, plasma, po, 90 mg, 90mg XBD173 single oral dose, participant 4
# [11] = human, plasma, po, 90 mg, Median of 4 participants
# [12] = human, plasma, po, 90 mg, participant 1
# [13] = human, plasma, po, 90 mg, participant 2
# [14] = human, plasma, po, 90 mg, participant 3
# [15] = human, plasma, po, 90 mg, participant 4
smiles,measurement,setting,value
CCN(Cc1ccccc1)C(=O)Cn1c(=O)n(C)c2cnc(-c3ccccc3)nc21 [XBD173],AUClast,"[1]; plasma, Max of 4 participants",556 ng·h/mL
same,AUClast,"[1]; plasma, Min of 4 participants",74 ng·h/mL
same,Estimate of plasma concentration (total),[1]; 90 mg oral XBD173,~ 320 nM
same,Adverse events,"[1]; 4 healthy volunteers, XBD173 90 mg once daily 7 days and etifoxine 50 mg TDS 7 days",No adverse events were reported
same,concentration at 30 min,"[1]; human, plasma, po, 90 mg, 90mg XBD173 single oral dose, 30 mins, participant 2",5.7 ng/mL
same,concentration at 60 min,[1]; [6],31.2 ng/mL
same,concentration at 60 min,[1]; [7],28.4 ng/mL
same,concentration at 60 min,[1]; [8],15.4 ng/mL
same,concentration at 60 min,[1]; [9],62.7 ng/mL
same,concentration at 60 min,[1]; [10],18.4 ng/mL
same,concentration at 120 min,[1]; [6],106 ng/mL
same,concentration at 120 min,[1]; [7],55.8 ng/mL
same,concentration at 120 min,[1]; [8],24.2 ng/mL
same,concentration at 120 min,[1]; [9],263 ng/mL
same,concentration at 120 min,[1]; [10],82.7 ng/mL
same,concentration at 180 min,[1]; [6],99.7 ng/mL
same,concentration at 180 min,[1]; [7],43.3 ng/mL
same,concentration at 180 min,[1]; [8],23 ng/mL
same,concentration at 180 min,[1]; [9],161 ng/mL
same,concentration at 180 min,[1]; [10],171 ng/mL
same,concentration at 240 min,[1]; [6],87.6 ng/mL
same,concentration at 240 min,[1]; [7],40.4 ng/mL
same,concentration at 240 min,[1]; [8],24.5 ng/mL
same,concentration at 240 min,[1]; [9],139 ng/mL
same,concentration at 240 min,[1]; [10],146 ng/mL
same,AUC(0-t),[1]; [11],247 ng·h/mL
same,Cmax,[1]; [11],114 ng/mL
same,Tmax,[1]; [11],2.5 h
same,AUC(0-t),[1]; [12],148 ng·h/mL
same,Cmax,[1]; [12],56 ng/mL
same,Tmax,[1]; [12],2 h
same,AUC(0-t),[1]; [13],74 ng·h/mL
same,Cmax,[1]; [13],25 ng/mL
same,Tmax,[1]; [13],4 h
same,AUC(0-t),[1]; [14],556 ng·h/mL
same,Cmax,[1]; [14],263 ng/mL
same,Tmax,[1]; [14],2 h
same,AUC(0-t),[1]; [15],345 ng·h/mL
same,Cmax,[1]; [15],171 ng/mL
same,Tmax,[1]; [15],3 h
same,Predicted TSPO occupancy,"TSPO [2]; from free plasma concentration, in HABs",~ 30%
same,Predicted TSPO occupancy from total plasma concentration,TSPO [2]; total plasma concentration ~320 nM,> 99%
same,Affinity for TSPO in the human brain,TSPO [3],2 to 3 nM
same,Peak plasma concentrations,[4]; 90‐mg dose,micromolar range
same,Plasma concentration reached,[4]; 90‐mg dose,1000 nM
same,Accumulation on repeated dosing,[4],does not accumulate
same,"fraction unbound at 4 h, 1 μM",in vitro,0.0034
same,Fraction in plasma bound,[5],99.66%
